Test results taken from US20230416199A1, “INHIBITORS OF AMINO ACID TRANSPORT” (ICAHN SCHOOL OF MEDICINE AT MOUNT SINAI, priority 2020, published 2023).

Tests used:
Assay type in all cases: cell-based
hASCT1 = target: T1, hASCT1 (Homo sapiens, UniProt P43007); assay: Electrophysiology (whole-cell current recording) of transfected HEK293 cells, hASCT1; settings: apparent Ki in the absence of substrate, HEK293, mean ± SD; read-out: Ki hASCT1
T1 construct: expressed in transfected cells; host or cells: HEK293 (ATCC CRL-11268), transient transfection
T1 sequence (P43007 1-532): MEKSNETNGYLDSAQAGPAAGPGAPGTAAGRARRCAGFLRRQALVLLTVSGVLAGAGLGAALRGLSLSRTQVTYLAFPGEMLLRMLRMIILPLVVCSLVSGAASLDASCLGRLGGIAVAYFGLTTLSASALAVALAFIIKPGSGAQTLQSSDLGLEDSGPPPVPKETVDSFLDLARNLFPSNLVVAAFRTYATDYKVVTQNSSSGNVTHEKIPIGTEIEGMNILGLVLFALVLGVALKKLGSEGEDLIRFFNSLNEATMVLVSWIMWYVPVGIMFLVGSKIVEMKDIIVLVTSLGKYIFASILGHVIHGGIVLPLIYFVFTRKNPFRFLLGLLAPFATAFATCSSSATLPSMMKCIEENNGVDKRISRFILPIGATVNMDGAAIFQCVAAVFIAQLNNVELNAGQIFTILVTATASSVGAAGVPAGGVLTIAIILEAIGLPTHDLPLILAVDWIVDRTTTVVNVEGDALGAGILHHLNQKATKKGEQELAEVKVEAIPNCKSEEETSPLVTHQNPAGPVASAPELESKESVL
Description: (§1) Human embryonic kidney 293 (HEK293, ATCC CRL-11268) cells were cultured in DMEM media supplemented with 10% (v v) fetal bovine serum (FBS), 2 mM glutamine, 1% penicillin streptomycin solution, 1 mM sodium pyruvate and non-essential amino acids. Cells were maintained at 37° C. in a fully humidified atmosphere containing 5% CO2. rASCT2, hASCT2, hASCT1, EAAT1, EAAT2, EAAC1, EAAT5 and YFP complementary DNAs were each used to transiently transfect HEK293 using POLYPLUS Jet-prime transfection reagent. Cells were analyzed using electrophysiological techniques 24-40 hours after transfection.
(§2) Stock solutions of inhibitor was prepared in dimethyl sulfoxide (DMSO) up to 100 mM. Dilutions to working concentrations were made using external buffer. […] For rASCT2, hASCT2 and hASCT1, external buffer contained 140 mM NaCl, 2 mM MgCl2, 2 mM CaCl2), and 10 mM HEPES, pH 7.40 while internal pipette solution comprised of 130 mM NaSCN, 2 mM MgCl2, 10 mM EGTA, 10 mM HEPES and 10 mM alanine, pH 7.40. For specificity experiments with EAAT1, EAAT2, EAAC1 and EAAT5, internal solution contained 10 mM glutamate instead of alanine. Compounds were applied to HEK293 cells expressing DNA of interest suspended from a current recording electrode in whole cell configuration through a rapid solution exchange device. Cells are immersed in external buffer bath used to dissolve the inhibitors. The open pipette resistance was between 3 and 6 MΩ. Series resistance was not compensated in these experiments due to relatively small currents. Currents traces were recorded using an Adams and List EPC7 amplifier and digitized using a Molecular Devices Digidata A/D converter.
(§3) Linear and nonlinear curve fitting of the experimental data were analyzed using MicroCal Origin software. Nonlinear dose-response relationships were fitted with a Michaelis-Menten-like equation to obtain apparent Ki values in the absence of substrate (see TABLE 2 for Ki values). The figures show representative current traces and dose-response curves for hACST2 and rASCT2, used to obtain Ki values in TABLE 2 for compound SN 40. At least four experiments were performed with at least three different cells. Error bars in all graphs, e.g., in FIG. 1B and FIG. 1C and tables (Ki values) represent mean±SD.

EAAT1 = target: T2, EAAT1 (Homo sapiens, UniProt P43003); assay: Electrophysiology specificity experiment in transfected HEK293 cells, EAAT1; settings: apparent Ki, HEK293, internal solution 10 mM glutamate, mean ± SD
T2 construct: expressed in transfected cells; host or cells: HEK293 (ATCC CRL-11268), transient transfection
Description: as §1, §2, §3

EAAT2 = target: T3, EAAT2 (Homo sapiens, UniProt P43004); assay: Electrophysiology specificity experiment in transfected HEK293 cells, EAAT2; settings: apparent Ki, HEK293, internal solution 10 mM glutamate, mean ± SD; read-out: Ki EAAT2
T3 construct: expressed in transfected cells; host or cells: HEK293 (ATCC CRL-11268), transient transfection
Description: as §1, §2, §3

EAAC1 = target: T4, EAAC1 (UniProt P51907); assay: Electrophysiology specificity experiment in transfected HEK293 cells, EAAC1; settings: apparent Ki, HEK293, internal solution 10 mM glutamate, mean ± SD
T4 construct: Ki EAAC1; other: apparent Ki, HEK293, internal solution 10 mM glutamate, mean ± SD
T4 sequence (P51907 1-523): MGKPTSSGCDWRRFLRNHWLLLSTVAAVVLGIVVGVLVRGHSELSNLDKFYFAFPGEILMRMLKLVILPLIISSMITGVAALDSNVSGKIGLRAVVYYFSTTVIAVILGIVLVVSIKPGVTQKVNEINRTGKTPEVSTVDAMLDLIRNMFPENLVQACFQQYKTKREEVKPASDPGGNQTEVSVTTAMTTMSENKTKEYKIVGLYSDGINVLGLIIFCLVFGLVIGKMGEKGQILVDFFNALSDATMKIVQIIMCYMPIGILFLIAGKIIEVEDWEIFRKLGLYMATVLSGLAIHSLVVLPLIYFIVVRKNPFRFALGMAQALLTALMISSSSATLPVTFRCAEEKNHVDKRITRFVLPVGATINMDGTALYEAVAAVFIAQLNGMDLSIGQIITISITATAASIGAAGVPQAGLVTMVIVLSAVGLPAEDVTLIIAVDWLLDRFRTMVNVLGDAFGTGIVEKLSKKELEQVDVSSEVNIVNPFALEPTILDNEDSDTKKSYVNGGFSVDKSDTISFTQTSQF
Description: Cells were maintained at 37° C. in a fully humidified atmosphere containing 5% CO2. rASCT2, hASCT2, hASCT1, EAAT1, EAAT2, EAAC1, EAAT5 and YFP complementary DNAs were each used to transiently transfect HEK293 using POLYPLUS Jet-prime transfection reagent. Cells were analyzed using electrophysiological techniques 24-40 hours after transfection.
as §2
as §3, with “The figures show representative current traces and dose-response curves for hACST2 and rASCT2, used to obtain Ki values in TABLE 2 for compound SN 40.” left out

EAAT5 = target: T5, EAAT5 (Homo sapiens, UniProt O00341); assay: Electrophysiology specificity experiment in transfected HEK293 cells, EAAT5; settings: apparent Ki, HEK293, internal solution 10 mM glutamate, mean ± SD
T5 construct: expressed in transfected cells; host or cells: HEK293 (ATCC CRL-11268), transient transfection
Description: as §1, §2, §3

T5 sequence (O00341 whole entry, species assumed): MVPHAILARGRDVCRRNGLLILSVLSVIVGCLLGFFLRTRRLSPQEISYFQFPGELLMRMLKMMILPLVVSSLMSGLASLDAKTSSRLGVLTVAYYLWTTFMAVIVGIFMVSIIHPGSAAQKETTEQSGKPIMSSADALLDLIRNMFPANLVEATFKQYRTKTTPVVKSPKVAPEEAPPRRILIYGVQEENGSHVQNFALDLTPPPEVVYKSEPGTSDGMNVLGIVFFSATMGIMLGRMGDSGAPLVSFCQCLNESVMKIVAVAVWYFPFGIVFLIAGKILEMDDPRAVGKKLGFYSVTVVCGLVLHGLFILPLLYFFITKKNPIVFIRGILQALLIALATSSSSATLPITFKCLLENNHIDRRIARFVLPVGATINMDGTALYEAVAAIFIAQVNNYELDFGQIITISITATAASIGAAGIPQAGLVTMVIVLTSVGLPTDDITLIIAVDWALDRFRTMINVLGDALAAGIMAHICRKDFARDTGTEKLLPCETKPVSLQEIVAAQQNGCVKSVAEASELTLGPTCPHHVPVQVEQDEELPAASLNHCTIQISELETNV
T2 sequence (P43003 whole entry, species assumed): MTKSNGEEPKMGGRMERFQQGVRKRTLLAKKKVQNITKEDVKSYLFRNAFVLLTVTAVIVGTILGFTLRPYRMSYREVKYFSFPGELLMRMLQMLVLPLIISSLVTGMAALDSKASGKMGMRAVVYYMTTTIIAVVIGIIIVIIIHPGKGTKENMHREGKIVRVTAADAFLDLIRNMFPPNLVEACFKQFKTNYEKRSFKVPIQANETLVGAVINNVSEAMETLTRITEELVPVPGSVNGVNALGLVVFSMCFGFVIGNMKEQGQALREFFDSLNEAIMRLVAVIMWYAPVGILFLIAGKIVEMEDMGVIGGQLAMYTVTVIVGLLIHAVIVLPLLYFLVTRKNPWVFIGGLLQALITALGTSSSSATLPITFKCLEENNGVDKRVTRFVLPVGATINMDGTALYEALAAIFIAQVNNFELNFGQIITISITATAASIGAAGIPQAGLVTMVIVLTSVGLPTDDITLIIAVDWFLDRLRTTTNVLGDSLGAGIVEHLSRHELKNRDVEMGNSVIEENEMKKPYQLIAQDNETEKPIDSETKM
T3 sequence (P43004 whole entry, species assumed): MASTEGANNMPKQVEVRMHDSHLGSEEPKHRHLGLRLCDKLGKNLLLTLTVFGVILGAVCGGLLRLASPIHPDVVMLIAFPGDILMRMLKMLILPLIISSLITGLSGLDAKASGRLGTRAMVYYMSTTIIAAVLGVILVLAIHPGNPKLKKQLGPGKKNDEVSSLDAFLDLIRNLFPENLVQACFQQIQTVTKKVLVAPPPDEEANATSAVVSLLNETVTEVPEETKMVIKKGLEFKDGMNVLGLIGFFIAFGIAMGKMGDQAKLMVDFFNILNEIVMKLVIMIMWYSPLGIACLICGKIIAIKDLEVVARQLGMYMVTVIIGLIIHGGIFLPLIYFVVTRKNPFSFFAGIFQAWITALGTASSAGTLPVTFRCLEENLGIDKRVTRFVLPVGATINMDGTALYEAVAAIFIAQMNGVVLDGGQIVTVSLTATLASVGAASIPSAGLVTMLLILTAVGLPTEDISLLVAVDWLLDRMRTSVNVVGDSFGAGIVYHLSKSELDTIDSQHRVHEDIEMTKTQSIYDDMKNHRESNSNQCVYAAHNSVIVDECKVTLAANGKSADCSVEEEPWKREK

`O=C(O)[C@@H]1C[C@H](OCc2ccc(-c3ccccc3)cc2)CN1` [SN 39] gave a Ki (hASCT1) of 2820 ± 100 nM, a Ki (EAAT1) of 930 ± 100 nM and a Ki (EAAT2) of 2090 ± 500 nM. The Ki (EAAC1) was 1270 ± 200 nM and the Ki (EAAT5) was 1410 ± 300 nM.

`O=C(O[C@@H]1CN[C@H](C(=O)O)C1)c1ccc(-c2ccc(F)cc2)cc1` [SN 08] was tested, and the Ki (hASCT1) was 900 ± 100 nM, the Ki (EAAT1) was 400 ± 100 nM and the Ki (EAAT2) was 1290 ± 300 nM. For the same compound, the Ki (EAAC1) was 690 ± 100 nM and the Ki (EAAT5) was 2400 ± 700 nM.

`N[C@@H](COC(=O)c1ccc(NC(=O)c2ccccc2)cc1)C(=O)O` [SN 25] gave a Ki (hASCT1) of 11600 ± 1800 nM, a Ki (EAAT1) of 9570 ± 1600 nM and a Ki (EAAT2) of 11000 ± 1300 nM. For the same compound, the Ki (EAAC1) was 12300 ± 1900 nM and the Ki (EAAT5) was 12300 ± 3200 nM.

For `Cc1ccccc1-c1ccc(C(=O)O[C@@H]2CN[C@H](C(=O)O)C2)cc1` [SN 10], the Ki (hASCT1) was 1330 ± 300 nM, the Ki (EAAT1) was 1000 ± 100 nM and the Ki (EAAT2) was 1300 ± 100 nM. The Ki (EAAC1) was 1990 ± 400 nM and the Ki (EAAT5) was 2500 ± 900 nM.

`O=C(O[C@@H]1CN[C@H](C(=O)O)C1)c1ccc(-c2ccc(C(F)(F)F)cc2)cc1` [SN 09] was tested, and the Ki (hASCT1) was 440 ± 100 nM, the Ki (EAAT1) was 1000 ± 300 nM and the Ki (EAAT2) was 970 ± 100 nM. For the same compound, the Ki (EAAC1) was 1250 ± 200 nM and the Ki (EAAT5) was 1090 ± 200 nM.

For `O=C(O[C@@H]1CN[C@H](C(=O)O)C1)c1ccc(-c2ccccc2)cc1` [SN 05], the Ki (hASCT1) was 2770 ± 100 nM, the Ki (EAAT1) was 3700 ± 200 nM and the Ki (EAAT2) was 7250 ± 1500 nM. It also gave a Ki (EAAC1) of 7230 ± 1400 nM and a Ki (EAAT5) of 2220 ± 500 nM.

With `Cc1ccccc1-c1ccc(C(=O)O[C@@H]2CN[C@H](C(=O)O)C2)cc1C` [SN 11] the Ki (hASCT1) was 8200 ± 800 nM, the Ki (EAAT1) was 4750 ± 300 nM and the Ki (EAAT2) was 3140 ± 500 nM. The Ki (EAAC1) was 950 ± 200 nM and the Ki (EAAT5) was 1170 ± 100 nM.

For `O=C(O[C@@H]1CN[C@H](C(=O)O)C1)c1ccc(-c2ccccc2)nc1` [SN 19], the Ki (hASCT1) was 4370 ± 800 nM, the Ki (EAAT1) was 10200 ± 2500 nM and the Ki (EAAT2) was 7950 ± 1100 nM. The Ki (EAAC1) was 14200 ± 700 nM.
